Source: patent EP0960190B1, “IMI[…] RESISTANT SUGAR BEET PLANTS” (Michigan State University, priority 1996, dated 1998)
Where two headings read alike, the source gives them in different places.

What was measured:
Rel-1 [1] = assay: Whole plant sugarbeet response to postemergence ALS-inhibiting herbicides; format: in vivo, Beta vulgaris L.; conditions: Rel-1 whole plant, herbicide applied postemergence
Sur = assay: as above; format: in vivo, Beta vulgaris L.; conditions: for R/S: Sur whole plant, postemergence, relative to Rel-1
Sir-13 = assay: as above; format: in vivo, Beta vulgaris L.; conditions: for R/S: Sir-13 whole plant, postemergence, relative to Rel-1
Rel-1 [2] = assay: Shoot culture herbicide resistance (shoot injury and fresh weight on M20 media); format: cell-based, Beta vulgaris L.; conditions: Rel-1 sensitive control, herbicide concentration causing 50% injury to the shoot culture, 3 weeks, read-out: I50
Method: (§1) In step 7, shoot cultures were assessed for herbicide resistance by placing three small, consistently sized shoot cuttings on each plate of M20 media supplemented with logarithmically increasing concentrations of imidazolinone herbicide, sulfonylurea or triazolopyrimidine sulfonanilide ranging from 1 nM to 0.1 mM. 93R30 culture responses were compared to that of shoot cultures of a sensitive control (Rel-1) and a chlorsulfuron resistant, imidazolinone sensitive control (EL-49). Shoot cultures were maintained at 20 µE/m^2 s light intensity at 25°C for 3 weeks. Shoot culture was determined by rating shoot injury and fresh weight 3 weeks after transfer to selective media. Magnitude of herbicide resistance was determined by the ratio of resistant to sensitive I50 values (the herbicide concentration causing 50 percent injury).

EL-49 = assay: as above; format: cell-based, Beta vulgaris L.; conditions: for IC50 / R/S: EL-49; for IC50: herbicide concentration causing 50% injury to the shoot culture, 3 weeks, read-out: I50; for R/S: ratio of resistant to sensitive control (Rel-1) I50 values, shoot culture
Method: as §1

93R30B [3] = assay: as above; format: cell-based, Beta vulgaris L.; conditions: for R/S / IC50: 93R30B; for R/S: ratio of resistant to sensitive control (Rel-1) I50 values, shoot culture; for R/S / level of resistance: 30240 min; for IC50: herbicide concentration causing 50% injury to the shoot culture, 3 weeks, read-out: I50; for level of resistance: 93R30B in shoot culture
Method: as §1

93R30B [4] = assay: Whole plant sugarbeet response to postemergence ALS-inhibiting herbicides; format: in vivo, Beta vulgaris L.; conditions: for R/S: 93R30B (SB) whole plant, postemergence, relative to Rel-1
ALS extracts from 93R30B = assay: ALS enzyme activity assay in leaf extracts (acetoin colorimetry); format: biochemical, Beta vulgaris L.; conditions: for resistance of the ALS enzyme: SB double mutant ALS enzyme in vitro
Method: Standard procedures were utilized to partially purify ALS from rapidly expanding leaves of greenhouse-grown sugar beet plants (Hart, et al. Weed Science 40:378-383 (1992)). Extracts from heterozygous 93R30B F1 plants and Rel-1 S1 seed were assayed for ALS activity in the presence of logarithmically increasing concentrations of imazethapyr. ALS activity was determined from leaf extracts of REL-1 and 93R30B sugarbeet lines. Plants were grown in the greenhouse as described above to the four to six leaf stage. ALS activity from fresh extracts was determined in the presence of imazethapyr and chlorsulfuron at logarithmically increasing concentrations. The methods and procedures used were modified from those outlined by Ray (Plant Physiol. 75:827-831 (1984)) and Shaner, et al. (Plant Physiol. 76:545-546 (1984)). Ten g of sugarbeet leaves were homogenized in 40 ml cold homogenization buffer (0.1 M K2HPO4, pH 7.5, 1 mM sodium pyruvate, 0.5 mM MgCl2, 0.5 mM thiamine pyrophosphate, 10 µM of flavin adenine dinucleotide, 10% by vol glycerol) plus 2.5 g polyvinylpolypyrolidone. The homogenate was filtered through eight layers of cheesecloth and centrifuged at 27,000 g for 20 minutes. The supernatant was removed and brought to 50% saturation with (NH4)2SO4. […]
(§2) ALS activity is measured by adding 0.2 ml of enzyme preparation (diluted 3:1 with resuspension buffer) to 1.3 ml of reaction buffer (25 mM K2HPO4, pH 7.0, 0.625 mM MgCl2, 25 mM sodium pyruvate, 0.625 mM thiamine pyrophosphate, 1.25 µM flavin adenine dinucleotide) and incubated at 35°C for 1 hour. […]
Purchased acetoin was used as a standard for the colorimetric reaction. Acetoin concentrations were determined by measuring the absorption of the reaction solution at 530 nm. […] Protein concentrations of the extracts was determined by the method of Bradford (Anal. Biochem. 72:248-254 (1976)) using bovine serum albumin for the standard curve. […]

ALS enzyme from Sur = assay: as above; format: biochemical, Beta vulgaris L.; conditions: Sur single mutant ALS enzyme in vitro
Method: Standard procedures were utilized to partially purify ALS from rapidly expanding leaves of greenhouse-grown sugar beet plants (Hart, et al. Weed Science 40:378-383 (1992)). Extracts from heterozygous 93R30B F1 plants and Rel-1 S1 seed were assayed for ALS activity in the presence of logarithmically increasing concentrations of imazethapyr. ALS activity was determined from leaf extracts of REL-1 and 93R30B sugarbeet lines. Plants were grown in the greenhouse as described above to the four to six leaf stage. ALS activity from fresh extracts was determined in the presence of imazethapyr and chlorsulfuron at logarithmically increasing concentrations. […]
as §2
Purchased acetoin was used as a standard for the colorimetric reaction. Acetoin concentrations were determined by measuring the absorption of the reaction solution at 530 nm. […] Protein concentrations of the extracts was determined by the method of Bradford (Anal. Biochem. 72:248-254 (1976)) using bovine serum albumin for the standard curve.

ALS enzyme from Sir-13 = assay: as above; format: biochemical, Beta vulgaris L.; conditions: Sir-13 single mutant ALS enzyme in vitro
sensitive cells = assay: Cell selection on herbicide-supplemented solid B1 media; format: cell-based, Beta vulgaris L.; conditions: 50 nM in solid B1 media, 8-12 weeks, dim fluorescent light
From the text: Rel-1 (Regenerating East Lansing-1) is a highly regenerable male fertile sugar beet line used for initial cell selection for herbicide-resistant mutant to the sulfonylureas and is used as a sensitive control for most experiments. CR1-B This sugar beet isolate was developed by plating Rel-1 cells on chlorsulfuron-containing media. This variant is sulfonylurea resistant with modest resistance to the triazolopyrimidine herbicide, flumetsulam, but no imidazolinone resistance. This variant has been described by Saunders et al. (Crop Sci. 32:1357-1360) and Hart et al. (Weed Sci. 40:378-383 and 41:317-324). The SU resistance gene has been labeled Sur. 93R30B This isolate was developed by plating cells of a highly regenerable, Sur homozygous sugar beet plant (descendant of CR1-B) on media containing imazethapyr. EL-49 East Lansing 49, released by the USDA in 1993. Sugar beet line homozygous for the Sur gene, used for a sulfonylurea-resistant, imazethapyr- sensitive control. • a. Plants were selected as source materials for somaclonal selection based on their ability to generate callus under high cytokinin conditions (in B1 media) and regenerate shoots from callus. […]

| Molecule | I50 (Rel-1 [1]) | R/S (Sur) | R/S (Sir-13) | IC50 (Rel-1 [2]; Beta vulgaris, 504 h) | IC50 (EL-49; Beta vulgaris, 504 h) | R/S (EL-49; 30240 min) | R/S (93R30B [3]) | IC50 (93R30B [3]; Beta vulgaris, 504 h) | R/S (93R30B [4]) | level of resistance (93R30B [3]) | also measured |
| --- | --- | --- | --- | --- | --- | --- | --- | --- | --- | --- | --- |
| COCc1cnc(C2=NC(C)(C(C)C)C(=O)N2)c(C(=O)O)c1 (stereo not drawn) [AC299,263] | 1.1 g ha^-1 | 4 X | 130 X | 30 nM | 70 nM | 3X | 1400X | 40000 nM | >250 X | – | – |
| COc1nc(C)nc(NC(=O)NS(=O)(=O)c2ccccc2Cl)n1 [Chlorsulfuron] | 0.07 g ha^-1 | >1000 X | 1 X | 2.5 nM | 25000 nM | 10000X | 10000X | 25000 nM | 20 X | 10,000 fold | R/S (Sur; listed as chlorsulfuron): > 1000 X; reduction of whole plant resistance of the SB double mutant (93R30B [4]; SB double mutant compared with Sur single mutant, whole plant): more than 50 fold |
| Cc1ccn2nc(S(=O)(=O)Nc3c(F)cccc3F)nc2n1 [Flumetsulam] | – | – | – | 28 nM | 1100 nM | 40X | 60X | 1700 nM | – | 60 fold | resistance of the ALS enzyme (ALS extracts from 93R30B): 200 X; resistance of the ALS enzyme (ALS enzyme from Sur): 50 X; resistance of the ALS enzyme (ALS enzyme from Sir-13): 3 X |
| CC(C)C1(C)N=C(c2nc3ccccc3cc2C(=O)O)NC1=O (stereo not drawn) [Imazaquin] | – | – | – | 40 nM | 40 nM | 1X | 400X | 16000 nM | – | – | – |
| CCc1cnc(C2=NC(C)(C(C)C)C(=O)N2)c(C(=O)O)c1 (stereo not drawn) [Imazethapyr] | 0.5 g ha^-1 | 3 X | 100 X | 18 nM | 53 nM | 3X | 3600X | 64000 nM | 300 X | 3600 fold | resistance (Sur; Sur single mutant, postemergence to whole plants): 3 fold; cell survival (sensitive cells): all sensitive cells died; resistance (Sir-13; Sir-13 single mutant, postemergence to whole plants): 100 fold; level of resistance (EL-49; EL-49 in shoot culture, 30240 min): 3 fold; resistance of the ALS enzyme (ALS extracts from 93R30B): > 1000 X; level of resistance at the enzyme level (ALS extracts from 93R30B; ratio of I50's for the resistant (93R30B, heterozygous F1) and sensitive (Rel-1) lines): 1750 fold; resistance (93R30B [4]; SB double mutant, postemergence to whole plants): 300 fold; resistance of the ALS enzyme (ALS enzyme from Sur): 1 X; resistance of the ALS enzyme (ALS enzyme from Sir-13): 40 X |
| Cc1cc(C)nc(NC(=O)NS(=O)(=O)c2ccccc2C(=O)O)n1 [Sulfometuron] | 0.2 g ha^-1 | 23 X | 1 X | – | – | – | – | – | 4X | – | – |
| Imazamethabenzmethyl | – | – | – | – | – | 25X | > 125X | – | – | – | IC50 (Rel-1 [2]): 800 nM; IC50 (EL-49): 20000 nM; IC50 (93R30B [3]): > 100000 nM |
